According to ChEMBL document CHEMBL4346739, “Design, synthesis, and evaluation of novel N-(4-phenoxybenzyl)aniline derivatives targeting acetylcholinesterase, β-amyloid aggregation and oxidative stress to treat Alzheimer's disease” (Bioorg Med Chem, 2019):
Active and inactive are the calls of the source. The calls are words filed in the database; no cut-off is given here.

Assays:
[1] = test system: Mus musculus; test: Cognitive enhancing effect in albino mouse assessed as reversal of scopolamine-induced reduction in spontaneous alteration score at 5 mg/kg, po administered once daily for 7 days followed by scopolamine challenge for 5 mins prior to test and measured on day 7 by Y-maze test; assay type: functional, organism-based
[2] = test system: Mus musculus; test: Reversal of scopolamine-induced amnesic effect in albino mouse assessed as increase in transfer latency time of acquisition trial at 5 mg/kg, po administered once daily for 7 days followed by scopolamine challenge and subsequent training session for 5 mins by passive avoidance test; assay type: functional, organism-based
[3] = test system: Mus musculus; test: Reversal of scopolamine-induced amnesic effect in albino mouse assessed as increase in transfer latency time of retention trial at 5 mg/kg, po administered once daily for 7 days followed by scopolamine challenge and subsequent training session for 5 mins by passive avoidance test; assay type: functional, organism-based
[4] = molecular target: Cholinesterase (Homo sapiens, UniProt P06276); test: Inhibition of human plasma BChE using butyrylthiocholine iodide as substrate preincubated for 10 mins followed by substrate addition and measured at 6 mins by Ellman's method
Sequence of Cholinesterase (P06276 whole entry): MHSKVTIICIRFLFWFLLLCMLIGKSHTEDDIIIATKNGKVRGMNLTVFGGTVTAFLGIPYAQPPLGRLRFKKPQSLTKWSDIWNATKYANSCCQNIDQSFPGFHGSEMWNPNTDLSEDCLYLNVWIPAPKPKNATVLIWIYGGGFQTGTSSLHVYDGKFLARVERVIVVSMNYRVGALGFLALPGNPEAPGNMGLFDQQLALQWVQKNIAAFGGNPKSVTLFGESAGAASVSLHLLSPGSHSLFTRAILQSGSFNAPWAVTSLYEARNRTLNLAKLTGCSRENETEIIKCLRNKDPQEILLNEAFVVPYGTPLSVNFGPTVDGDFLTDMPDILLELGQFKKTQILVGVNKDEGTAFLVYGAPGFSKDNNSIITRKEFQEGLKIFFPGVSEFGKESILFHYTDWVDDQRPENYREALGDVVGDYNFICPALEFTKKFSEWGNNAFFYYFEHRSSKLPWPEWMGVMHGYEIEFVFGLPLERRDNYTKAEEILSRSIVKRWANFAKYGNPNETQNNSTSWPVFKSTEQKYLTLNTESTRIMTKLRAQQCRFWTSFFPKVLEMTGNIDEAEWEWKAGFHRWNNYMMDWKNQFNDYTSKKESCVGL

[5] = Permeability of compound at 25 ug/ml at pH 7.4 incubated for 18 hrs by PAMPA-BBB assay
[6] = molecular target: T1, Acetylcholinesterase (Homo sapiens, UniProt P22303); test: Inhibition of human erythrocyte AChE using acetylthiocholine iodide as substrate preincubated for 10 mins followed by substrate addition and measured for 6 mins by Ellman's method
T1 sequence (P22303 whole entry): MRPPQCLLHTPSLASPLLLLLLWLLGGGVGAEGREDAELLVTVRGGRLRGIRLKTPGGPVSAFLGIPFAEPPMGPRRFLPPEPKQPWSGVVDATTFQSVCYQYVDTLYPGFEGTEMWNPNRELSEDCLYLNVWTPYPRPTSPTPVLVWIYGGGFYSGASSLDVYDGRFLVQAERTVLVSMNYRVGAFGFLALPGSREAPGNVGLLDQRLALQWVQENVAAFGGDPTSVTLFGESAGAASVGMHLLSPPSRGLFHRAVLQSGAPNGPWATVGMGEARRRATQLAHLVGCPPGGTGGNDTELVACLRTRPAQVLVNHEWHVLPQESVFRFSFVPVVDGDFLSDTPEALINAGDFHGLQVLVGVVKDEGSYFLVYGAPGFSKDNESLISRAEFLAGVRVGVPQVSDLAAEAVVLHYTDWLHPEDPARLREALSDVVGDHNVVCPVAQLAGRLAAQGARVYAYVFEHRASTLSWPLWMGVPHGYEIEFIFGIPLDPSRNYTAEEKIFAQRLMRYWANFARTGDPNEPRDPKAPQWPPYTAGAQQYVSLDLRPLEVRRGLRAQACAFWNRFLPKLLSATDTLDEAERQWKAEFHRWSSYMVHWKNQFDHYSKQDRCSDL

[7] = Octanol/water partition co-efficient, log P of compound at pH 7.4 by shake-flask method; assay type: physicochemical
[8] = Acute toxicity in Swiss albino mouse assessed as convulsions by OECD 423 guideline based method; conditions: in vivo
[9] = Acute toxicity in Swiss albino mouse assessed as effect on sleep by OECD 423 guideline based method; conditions: in vivo
[10] = test system: Mus musculus; test: In vivo antioxidant activity in albino mouse assessed as increase in scopolamine-induced catalase activity by measuring decrease in H2O2 level in brain at 2.5 to 10 mg/kg, po administered once daily for 7 days followed by scopolamine challenge; assay type: functional, organism-based
[11] = molecular target: T1, Acetylcholinesterase; test: Inhibition of human erythrocyte AChE-induced amyloid beta (1 to 42) (unknown origin) aggregation incubated for 48 hrs by fluorescence based thioflavin T assay
[12] = molecular target: T1, Acetylcholinesterase; test: (§1) Competitive inhibition of human erythrocyte AChE at 10 nM to 10 uM using acetylthiocholine iodide as substrate preincubated for 10 mins followed by substrate addition and measured up to 6 mins by Lineweaver-Burk plot analysis
[13] = test system: Mus musculus; test: Antialzheimer activity in albino mouse assessed as reversal of scopolamine-induced AChE level in brain at 2.5 to 10 mg/kg, po administered once daily for 7 days followed by scopolamine challenge using acetylthiocholine iodide as substrate by Ellman's method; assay type: functional, organism-based
[14] = molecular target: T1, Acetylcholinesterase; test: as §1, with “AChE assessed as enzyme-inhibitor complex formation by measuring intersection points on both axes of 1/Vmax and 1/[S]” for “AChE”
[15] = test system: Mus musculus; test: Reversal of scopolamine-induced amnesic effect in albino mouse assessed as increase in transfer latency time of retention trial at 2.5 to 10 mg/kg, po administered once daily for 7 days followed by scopolamine challenge and subsequent training session for 5 mins by passive avoidance test; assay type: functional, organism-based
[16] = test system: Mus musculus; test: Cognitive enhancing effect in albino mouse assessed as reversal of scopolamine-induced reduction in spontaneous alteration score at 2.5 to 10 mg/kg, po administered once daily for 7 days followed by scopolamine challenge for 5 mins prior to test and measured on day 7 by Y-maze test; assay type: functional, organism-based
[17] = molecular target: T1, Acetylcholinesterase; test: Competitive inhibition of human erythrocyte AChE assessed as effect on substrate V max at 10 nM to 10 uM using acetylthiocholine iodide as substrate preincubated for 10 mins followed by substrate addition and measured up to 6 mins by Lineweaver-Burk plot analysis
[18] = Acute toxicity in Swiss albino mouse assessed as diarrhea by OECD 423 guideline based method; conditions: in vivo
[19] = molecular target: T1, Acetylcholinesterase; test: Competitive inhibition of human erythrocyte AChE assessed as […] in Km at 10 nM to 10 uM using acetylthiocholine iodide as substrate preincubated for 10 mins followed by substrate addition and measured up to 6 mins by Lineweaver-Burk plot analysis
[20] = Acute toxicity in Swiss albino mouse assessed as salivation by OECD 423 guideline based method; conditions: in vivo
[21] = Acute toxicity in Swiss albino mouse assessed as induction of tremors by OECD 423 guideline based method; conditions: in vivo
[22] = test system: Mus musculus; test: Effect on total arm entries in scopolamine-induced spatial memory impairment in albino mouse model of amnesia at 2.5 to 10 mg/kg, po administered once daily for 7 days followed by scopolamine challenge for 5 mins prior to test and measured on day 7 by Y-maze test; assay type: ADME, organism-based; conditions: in vivo
[23] = test system: Mus musculus; test: Reversal of scopolamine-induced amnesic effect in albino mouse assessed as increase in transfer latency time of acquisition trial at 2.5 to 10 mg/kg, po administered once daily for 7 days followed by scopolamine challenge and subsequent training session for 5 mins by passive avoidance test; assay type: functional, organism-based
[24] = molecular target: T1, Acetylcholinesterase; test: Competitive inhibition of human erythrocyte AChE assessed as enzyme-inhibitor complex formation by measuring 1/s at 10 nM to 10 uM using acetylthiocholine iodide as substrate preincubated for 10 mins followed by substrate addition and measured up to 6 mins by Lineweaver-Burk plot analysis
[25] = Acute toxicity in Swiss albino mouse assessed as mortality by OECD 423 guideline based method; conditions: in vivo
[26] = test system: Mus musculus; test: In vivo antioxidant activity in albino mouse assessed as decrease in scopolamine-induced MDA level in brain at 2.5 to 10 mg/kg, po administered once daily for 7 days followed by scopolamine challenge by TBARS assay; assay type: functional, organism-based
[27] = test system: Mus musculus; test: In vivo antioxidant activity in albino mouse assessed as increase in scopolamine-induced SOD level in brain at 2.5 to 10 mg/kg, po administered once daily for 7 days followed by scopolamine challenge and measured for 2 mins at 30 secs interval; assay type: functional, organism-based
[28] = Acute toxicity in Swiss albino mouse assessed as effect on feeding behavior by OECD 423 guideline based method; conditions: in vivo

Structure (SMILES): COc1cc2c(cc1OC)C(=O)C(CC1CCN(Cc3ccccc3)CC1)C2 (configuration not stated)
- Activity [1]: Active
- Activity [2]: Active
- Activity [3]: Active

Structure (SMILES): Nc1cccc(Cl)c1Oc1ccc(CNc2ccc(Br)cc2)cc1
- IC50 [4]: > 10 µM
- Papp at 18 h, 25 ug/ml [5]: 3.48 ×10⁻⁶ cm/s
- IC50 [6]: > 10 µM
- logD [7]: 4.52

Structure (SMILES): Nc1cccc(Cl)c1Oc1ccc(CNc2cc(Br)cc(Br)c2)cc1
- IC50 [4]: > 10 µM
- Papp at 18 h, 25 ug/ml [5]: 1.45 ×10⁻⁶ cm/s
- IC50 [6]: > 10 µM
- logD [7]: 4.52

Structure (SMILES): COc1cccc(NCc2ccc(Oc3c(N)cccc3Cl)cc2)c1
- IC50 [4]: 8.25 µM
- Papp at 18 h, 25 ug/ml [5]: 4.65 ×10⁻⁶ cm/s
- IC50 [6]: 5.65 µM
- logD [7]: 3.98

Structure (SMILES): Nc1cccc(Cl)c1Oc1ccc(CNc2ccc(O)cc2)cc1
- IC50 [4]: 9.36 µM
- Papp at 18 h, 25 ug/ml [5]: 6.87 ×10⁻⁶ cm/s
- IC50 [6]: 8.81 µM
- logD [7]: 3.15

Structure (SMILES): COc1cc(NCc2ccc(Oc3c(N)cccc3Cl)cc2)cc(OC)c1OC
- Activity [8]: Non-Toxic
- Activity [9]: Non-Toxic
- Activity [1]: Active
- Activity [10]: Active
- inhibition [11]: Dose-dependent effect
- Ki [12]: 0.879 µM
- Activity [13]: Dose-dependent effect
- Ratio [14]: > 0
- Activity [15]: Dose-dependent effect
- Activity [16]: Active
- inhibition [17]: Active
- IC50 [4]: 8.41 µM
- Activity [18]: Non-Toxic
- inhibition [19]: Active
- Activity [20]: Non-Toxic
- Activity [21]: Non-Toxic
- Activity [22]: Non-Toxic
- Activity [23]: Active
- Papp at 18 h, 25 ug/ml [5]: 6.35 ×10⁻⁶ cm/s
- fold change (FC) [24]: > 0
- Activity [25]: Non-Toxic
- IC50 [6]: 1.32 µM
- Activity [26]: Active
- Activity [27]: Active
- logD [7]: 3.78
- Activity [28]: Non-Toxic

Structure (SMILES): CN(C)CCCN1c2ccccc2Sc2ccc(Cl)cc21 [CHLORPROMAZINE]
- Papp at 18 h, 25 ug/ml [5]: 5.8 to 6.5 ×10⁻⁶ cm/s

Structure (SMILES): Nc1cccc(Cl)c1Oc1ccc(CNc2cccc(Cl)c2)cc1
- IC50 [4]: > 10 µM
- Papp at 18 h, 25 ug/ml [5]: 5.65 ×10⁻⁶ cm/s
- IC50 [6]: > 10 µM
- logD [7]: 3.98

Structure (SMILES): COc1ccc(NCc2ccc(Oc3c(N)cccc3Cl)cc2)cc1
- IC50 [4]: 9.97 µM
- Papp at 18 h, 25 ug/ml [5]: 5.68 ×10⁻⁶ cm/s
- IC50 [6]: 5.24 µM
- logD [7]: 3.33

Structure (SMILES): COc1cc(NCc2ccc(Oc3c(N)cccc3Cl)cc2)cc(OC)c1
- IC50 [4]: 6.42 µM
- Papp at 18 h, 25 ug/ml [5]: 4.54 ×10⁻⁶ cm/s
- IC50 [6]: 2.88 µM
- logD [7]: 3.56

Structure (SMILES): NCCc1ccc(O)c(O)c1 [DOPAMINE]
- Papp at 18 h, 25 ug/ml [5]: 0.18 to 0.2 ×10⁻⁶ cm/s

Structure (SMILES): Nc1cccc(Cl)c1Oc1ccc(CNc2cccc(Br)c2)cc1
- IC50 [4]: > 10 µM
- Papp at 18 h, 25 ug/ml [5]: 3.56 ×10⁻⁶ cm/s
- IC50 [6]: > 10 µM
- logD [7]: 4.05

Structure (SMILES): CC(=O)[C@H]1CC[C@H]2[C@@H]3CCC4=CC(=O)CC[C@]4(C)[C@H]3CC[C@]12C [PROGESTERONE]
- Papp at 18 h, 25 ug/ml [5]: 9.3 to 13.8 ×10⁻⁶ cm/s

Structure (SMILES): Nc1cccc(Cl)c1Oc1ccc(CNc2ccc(Cl)cc2)cc1
- IC50 [4]: > 10 µM
- Papp at 18 h, 25 ug/ml [5]: 3.42 ×10⁻⁶ cm/s
- IC50 [6]: > 10 µM
- logD [7]: 4.65

Structure (SMILES): Nc1cccc(Cl)c1Oc1ccc(CNc2cc(Cl)cc(Cl)c2)cc1
- IC50 [4]: > 10 µM
- Papp at 18 h, 25 ug/ml [5]: 1.56 ×10⁻⁶ cm/s
- IC50 [6]: > 10 µM
- logD [7]: 4.39

Structure (SMILES): CCn1cc(C(=O)O)c(=O)c2cc(F)c(N3CCNC(C)C3)c(F)c21 (configuration not stated) [LOMEFLOXACIN]
- Papp at 18 h, 25 ug/ml [5]: 0.31 to 1.1 ×10⁻⁶ cm/s

Structure (SMILES): Nc1cccc(Cl)c1Oc1ccc(CNc2cccc(O)c2)cc1
- IC50 [4]: 9.45 µM
- Papp at 18 h, 25 ug/ml [5]: 5.55 ×10⁻⁶ cm/s
- IC50 [6]: 7.23 µM
- logD [7]: 3.01

Structure (SMILES): Nc1cccc(Cl)c1Oc1ccc(CNc2ccccc2)cc1
- IC50 [4]: > 10 µM
- Papp at 18 h, 25 ug/ml [5]: 6.26 ×10⁻⁶ cm/s
- IC50 [6]: > 10 µM
- logD [7]: 3.54

Structure (SMILES): Cc1nnc2n1-c1ccc(Cl)cc1C(c1ccccc1)=NC2 [ALPRAZOLAM]
- Papp at 18 h, 25 ug/ml [5]: 4.2 to 5.4 ×10⁻⁶ cm/s
